Experimental data taken from ChEMBL document CHEMBL5537117, “Novel 3-hydroxypyridin-4(1H)-One derivatives as ferroptosis inhibitors with iron-chelating and reactive oxygen species scavenging activities and therapeutic effect in cisplatin-induced cytotoxicity” (Eur J Med Chem, 2024).
Active and inactive are the calls of the source. No cut-off for these calls is given here.

Tests used:
[1] = Antioxidant activity assessed as trolox equivalent of ORAC radical scavenging activity at 8 uM; type: functional
[2] = Antioxidant activity assessed as trolox equivalent of ORAC radical scavenging activity at 4 uM; type: functional
[3] = Antioxidant activity assessed as ABTS radical scavenging activity incubated in dark for 6 mins by absorbance based microplate reader analysis; type: functional
[4] = Acid dissociation constant, pKa3 of the compound in 0.1M KCl at pH 2.0 to 10.5 by UV absorption method; type: physicochemical
[5] = Acid dissociation constant, pKa2 of the compound in 0.1M KCl at pH 2.0 to 10.5 by UV absorption method; type: physicochemical
[6] = Log K1 of the compound in 0.1M KCl at pH 0.9 to 2.1 by UV absorption method; type: physicochemical
[7] = Metal chelating activity assessed as Fe3+ chelation
[8] = Log K3 of the compound in 0.1M KCl at pH 2.0 to 10.5 by UV absorption method; type: physicochemical
[9] = Log K2 of the compound in 0.1M KCl at pH 2.0 to 10.5 by UV absorption method; type: physicochemical
[10] = Acid dissociation constant, pKa1 of the compound in 0.1M KCl at pH 2.0 to 10.5 by UV absorption method; type: physicochemical
[11] = system: HT-22; assay: Cytotoxicity against mouse HT-22 cells assessed as reduction in cell viability at 150 uM by MTT assay relative to control; type: toxicity, cell-based; conditions: ht-22, 150 µM
[12] = system: HT-22; assay: Anti-ferroptotic activity in erastin-induced ferroptosis in mouse HT-22 cells assessed as cell viability incubated for 24 hrs by MTT assay; type: functional, cell-based; conditions: HT-22, 24 h
[13] = system: L02; assay: Cytotoxicity against human L02 cells assessed as reduction in cell viability at upto 100 uM by MTT assay; type: toxicity, cell-based; conditions: l02, 100 µM
[14] = system: HEK-293T; assay: Protection against cisplatin-induced cytotoxicity in HEK293T cells assessed as cell viability measured after 24 to 48 hrs by MTT assay; type: functional, cell-based; conditions: Homo sapiens
[15] = system: HEK-293T; assay: Protection against cisplatin-induced cytotoxicity in HEK293T cells assessed as reduction in attenuation of intracellular Fe2+ at 30 to 80 uM measured after 24 hrs by FeRhoNox-1 based flow cytometry analysis; type: functional, cell-based; conditions: Homo sapiens, dose 30-80 µM
[16] = system: HT-22; assay: Anti-ferroptotic activity against Erastin-induced ferroptosis in mouse HT-22 cells assessed as reduction in ROS accumulation at 100 uM measured after 24 hrs by DCFH-DA based flow cytometry analysis relative to control; type: functional; design: scale not given: the % may be the effect or the level left

Structure (SMILES) | Activity [1] | Activity [2] | IC50 [3] [µM] | pKa [4] | pKa [5] | log(activity) [6] | Activity [7] | log(activity) [8] | log(activity) [9] | pKa [10] | Activity [11] [%] | EC50 [12] [µM] | Activity [13] | EC50 [14] [µM] | Activity [15] | Activity [16] [%]
Cc1c(O)c(=O)ccn1NC(=O)/C=C/c1ccc(C(F)(F)F)cc1 | 0.61 | < 0.1 | 12 |  |  |  |  |  |  |  |  |  |  |  |  | 
Cc1cccc(/C=C/C(=O)Nn2ccc(=O)c(O)c2C)c1 | 2.51 | 0.57 | 4.91 | 10.4 | 7.23 | 13.57 | 15.8 | 35.55 | 25.95 | 1.3 |  |  |  |  |  | 
Cc1c(O)c(=O)ccn1NC(=O)/C=C/c1cc(Cl)ccc1Cl | 6.56 | 3.06 | > 100 | 10 | 7.34 | 14.19 | 17.7 | 35.05 | 26.02 | 2.48 |  |  |  |  |  | 
Cc1c(O)c(=O)ccn1C [DEFERIPRONE] | 9.19 | 4.73 | 9.7 |  | 9.93 | 14.12 | 17.9 | 34.97 | 25.8 |  | > 80 | 165 | Non-Toxic | 40 | Active | 
Cc1c(O)c(=O)ccn1NC(=O)/C=C/c1ccccc1F | 24.9 | 18.1 | 4.38 | 10.3 | 6.74 | 14.34 | 17.6 | 35.75 | 26.41 | 2.4 | > 80 | 25.8 |  |  |  | 
COc1ccc(/C=C/C(=O)Nn2ccc(=O)c(O)c2C)cc1OC | 21.1 | 15.7 | 4.9 | 10.2 | 7.33 | 13.89 | 17.3 | 35.17 | 25.87 | 2.29 | > 80 | 33.5 |  |  |  | 
O=C(/C=C/c1ccccc1)c1ccccc1 [CHALCONE] |  |  |  |  |  |  |  |  |  |  |  | > 500 |  |  |  | 
Cc1c(O)c(=O)ccn1NC(=O)/C=C/c1ccc(F)cc1F | 2.67 | 1.17 | 7.51 | 10.2 | 6.83 | 14.11 | 17.5 | 35.31 | 26.11 | 2.57 |  |  |  |  |  | 
Cc1c(O)c(=O)ccn1NC(=O)/C=C/c1ccc(F)cc1 | 34.1 | 22.8 | 4.97 | 10.2 | 7.15 | 14.3 | 17.8 | 35.77 | 26.34 | 2.64 | > 80 | 17.4 |  |  |  | 
Cc1c(O)c(=O)ccn1NC(=O)/C=C/c1ccc(F)cc1Cl | 4.78 | 2.15 | 5.01 | 10.2 | 6.7 | 14.41 | 17.6 | 35.55 | 26.4 | 2.71 |  |  |  |  |  | 
Oc1ccc(/C=C/c2cc(O)cc(O)c2)cc1 [RESVERATROL] | 17.6 | 16.7 | 5.14 |  |  |  |  |  |  |  |  |  |  |  |  | 
COc1ccc(/C=C/C(=O)Nn2ccc(=O)c(O)c2C)cc1 | 19.4 | 9.42 | 5.17 | 10.3 | 7.41 | 14.01 | 17.1 | 35.52 | 26.09 | 2.42 |  | 28.9 |  |  |  | 
Cc1cccc(C)c1/C=C/C(=O)Nn1ccc(=O)c(O)c1C | 5.6 | 2.91 | 4.88 | 10.3 | 6.97 | 13.71 | 16.9 | 35.08 | 25.8 | 2.06 |  |  |  |  |  | 
Cc1c(O)c(=O)ccn1NC(=O)/C=C/c1c(F)cccc1F | 5.03 | 2.45 | 4.81 | 10.2 | 6.83 | 14.27 | 17.4 | 35.32 | 26.25 | 2.51 |  |  |  |  |  | 
Cc1c(O)c(=O)ccn1NC(=O)/C=C/c1ccc(Cl)cc1 | < 0.1 | < 0.1 | 8.66 |  |  |  |  |  |  |  |  |  |  |  |  | 
Cc1c(O)c(=O)ccn1NC(=O)/C=C/c1ccccc1Cl | 6.46 | 2.67 | 5.14 | 10.2 | 6.96 | 14.03 | 17.4 | 35.29 | 26.11 | 2.22 |  |  |  |  |  | 
Cc1ccc(/C=C/C(=O)Nn2ccc(=O)c(O)c2C)cc1 | 2.89 | 0.72 | 4.79 | 10.3 | 7.24 | 13.93 | 16.8 | 34.5 | 26.49 | 2.25 |  |  |  |  |  | 
COc1ccc(/C=C/C(=O)Nn2ccc(=O)c(O)c2C)c(F)c1 | 6.01 | < 0.1 | > 100 |  |  |  |  |  |  |  |  |  |  |  |  | 
COc1cccc(/C=C/C(=O)Nn2ccc(=O)c(O)c2C)c1 | 16.1 | 8.99 | 4.78 | 10.2 | 6.99 | 14.2 | 17.8 | 35.64 | 26.72 | 2.4 | > 80 | 26.2 |  |  |  | 
COc1ccc(/C=C/C(=O)Nn2ccc(=O)c(O)c2C)c(OC)c1OC | 14.8 | 8.52 | 6.99 | 10.2 | 7.29 | 13.72 | 17 | 35 | 25.73 | 2.1 | > 80 | 19.6 |  |  |  | 
COc1ccccc1/C=C/C(=O)Nn1ccc(=O)c(O)c1C | 14.6 | 8.92 | 4.78 | 10.3 | 7.09 | 14.14 | 17.4 | 35.48 | 26.17 | 2.46 | > 80 | 18.2 |  |  |  | 
Cc1c(O)c(=O)ccn1NC(=O)/C=C/c1ccccc1 | 11.4 | 6.73 | 4.8 | 10.1 | 7.1 | 13.61 | 17.9 | 35.4 | 25.88 | 2.37 | > 80 | 72 |  |  |  | 
O=C(O)/C=C/c1ccccc1 [CINNAMIC ACID] | 1.13 | 1.27 | > 100 |  |  |  |  |  |  |  |  |  |  |  |  | 
Cc1c(O)c(=O)ccn1NC(=O)/C=C/c1cccc(Cl)c1F | 1.24 | < 0.1 | 21.8 |  |  |  |  |  |  |  |  |  |  |  |  | 
Cc1c(O)c(=O)ccn1NC(=O)/C=C/c1cccc(Cl)c1 | 6.52 | 3.27 | 4.9 | 10.1 | 6.66 | 14.03 | 17.8 | 35.28 | 26.16 | 2.52 |  |  |  |  |  | 100
Cc1c(C)c2c(c(C)c1O)CCC(C)(C(=O)O)O2 (centres undefined) [TROLOX] |  |  | 15.3 |  |  |  |  |  |  |  |  |  |  |  |  | 
Cc1ccccc1/C=C/C(=O)Nn1ccc(=O)c(O)c1C | 3.09 | 0.97 | 4.68 | 10.2 | 6.98 | 13.79 | 17.6 | 35.43 | 25.95 | 2.23 |  |  |  |  |  | 
Cc1cccc(/C=C/C(=O)Nn2ccc(=O)c(O)c2C)c1C | 13.1 | 7.64 | 10.2 | 10.3 | 7.06 | 14.07 | 17.5 | 35.67 | 26.22 | 2.38 |  |  |  |  |  | 
COc1cc(F)ccc1/C=C/C(=O)Nn1ccc(=O)c(O)c1C | 3.83 | 1.21 | 5.01 | 10.4 | 7.02 | 14.06 | 17 | 35.29 | 26.09 | 2.34 |  |  |  |  |  | 
